Laboratory results published in patent US12421217B2, “Pyrazine derivative or salt thereof, and use of same” (FUJIFILM Corporation, priority 2019, dated 2025).

Experiments:
recombinant human DHODH = target: T1, recombinant human DHODH (Homo sapiens, UniProt Q02127); experiment: Enzyme reaction inhibition test (DHODH enzyme assay, DCIP quenching); assay type: biochemical; settings: DCIP absorbance 600 nm, 50 minutes, read-out: Enzyme reaction inhibitory effect (IC50)
T1 construct: DHODH, 31-395 aa, Human, His tag, E. coli, ATGP1615; His tag; purchased ATGen Co. Ltd. ATGP1615; host or cells: E. coli
T1 sequence (Q02127 31-395): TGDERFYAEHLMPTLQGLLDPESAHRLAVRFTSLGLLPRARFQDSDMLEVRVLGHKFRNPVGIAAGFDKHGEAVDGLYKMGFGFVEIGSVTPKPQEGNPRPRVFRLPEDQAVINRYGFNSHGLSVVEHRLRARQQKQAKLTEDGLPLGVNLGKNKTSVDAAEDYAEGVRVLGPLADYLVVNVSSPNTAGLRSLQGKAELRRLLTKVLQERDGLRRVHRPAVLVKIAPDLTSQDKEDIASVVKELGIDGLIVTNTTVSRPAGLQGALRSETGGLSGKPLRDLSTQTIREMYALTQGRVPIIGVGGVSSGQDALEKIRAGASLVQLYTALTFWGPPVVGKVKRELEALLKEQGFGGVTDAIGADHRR
Protocol: The DHODH enzyme assay was carried out with reference to “Benjamin Bader, Wolfgang Knecht, Markus Fries, and Monika Loffler. Expression, Purification, and Characterization of Histidine-Tagged Rat and Human Flavoenzyme Dihydroorotate Dehydrogenase. Protein Expression and Purification, 1998, 13, 414-422.”
The DHODH activity was evaluated using an enzyme assay system that is coupled with an assay in which a blue coloring agent 2,6-dichlorophenol indophenol (DCIP, available from MP Biomedicals, LLC, MP150118) is quenched. Purified recombinant human DHODH (DHODH, 31-395 aa, Human, His tag, E. coli, ATGP1615) was purchased from ATGen Co. Ltd. The enzyme assay was carried out in a 384-well plate using a buffer solution containing 100 mmol/L Hepes (available from Dojindo Laboratories, 342-01375), 400 mmol/L NaCl (available from FUJIFILM Wako Pure Chemical Corporation, 191-01665), 10% Glycerol (available from FUJIFILM Wako Pure Chemical Corporation, 075-00616), 0.05% Triton X-100 (available from Sigma-Aldrich Co., LLC, T8787-100ML), 0.2 mmol/L Ubiquinone-10 (available from FUJIFILM Wako Pure Chemical Corporation, 216-00761), 0.1 mmol/L DHO (L-dihydroorotic acid, available from Sigma-Aldrich Co., LLC, D7128), 0.5% DMSO (dimethylsulfoxide, available from FUJIFILM Wako Pure Chemical Corporation, 047-29353), 0.175 μg/mL DHODH, and 0.12 mmol/L DCIP and having a pH adjusted to 8.0 by adding 5 mol/L potassium hydroxide (available from FUJIFILM Wako Pure Chemical Corporation, 168-21815). A test compound with a predetermined concentration was added using Biomek NX (available from Beckman Coulter Inc.), and the enzymatic reaction was started by adding the substrate. The enzyme activity was assessed by measuring the decrease in DCIP absorbance (600 nm) for 50 minutes using an EnVision plate-reading spectrophotometer (available from PerkinElmer, Inc.).
The enzyme reaction inhibition rate at each test compound concentration was determined, and the 50% enzyme reaction inhibition concentration [IC50 (nmol/L)] was calculated using XLfit. Enzyme reaction inhibition rate (%)=(amount of luminescence in test compound-added well)/(amount of luminescence in DMSO-added well)×100
The abbreviations in the table have the following meanings. • A: IC50 value<10 nmol/L • B: 10 nmol/L≤IC50 value<100 nmol/L • C: 100 nmol/L≤IC50 value

[1] = test system: human myeloid leukemia cell line HL60; experiment: Cell growth test (Cell Titer Glo); assay type: cell-based; settings: HL-60, 72 h, HL60 cells, 3 days, read-out: Cell growth inhibitory effect (GI50)
Protocol: The cell growth test was carried out using the human myeloid leukemia cell line HL60 (available from ATCC, CRL-240). As a culture medium of HL60 cells, RPMI 1640 (available from FUJIFILM Wako Pure Chemical Corporation, 189-02025) supplemented with 10% fetal bovine serum (available from Thermo Fisher Scientific, Inc., 10437-028), and 1% penicillin-streptomycin (10,000 U/mL, available from Thermo Fisher Scientific, Inc., 15140-122) was used. HL60 cells were seeded on a 384-well plate (available from Corning Inc., 4588) at a cell density of 1×10^3 cells/20 μL/well. After culturing overnight, 5 μL of the test compound having a predetermined concentration was added, and 3 days later, 25 μL of Cell Titer Glo (registered trademark) Luminescent Cell Viability Assay (available from Promega Corporation, G7573) was added, and then the amount of luminescence was measured using an EnVision plate reader (available from PerkinElmer, Inc.). Since the amount of luminescence is proportional to the intracellular concentration of adenosine triphosphate (ATP), the amount of luminescence was used as an indicator of the number of viable cells. The growth inhibitory concentration for each test compound concentration was calculated by the following expression.
The growth inhibition rate at each test compound concentration was determined, and the 50% growth inhibitory concentration [GI50 (nmol/L)] was calculated using XLfit. Growth inhibition rate (%)=(amount of luminescence in test compound-added well)/(amount of luminescence in DMSO-added well)×100
The abbreviations in the table have the following meanings. • A: GI50 value<100 nmol/L • B: 100 nmol/L≤GI50 value<1,000 nmol/L • C: 1,000 nmol/L≤GI50 value

[2] = test system: human acute myeloid leukemia cell line HL60; experiment: In vivo drug efficacy test in cancer-bearing mouse model with subcutaneous transplantation of HL60; settings: NOD/scid mice, oral 10 to 30 mg/kg once daily for 10 days
Protocol: (Drug Efficacy Test in Cancer-Bearing Mouse Model with Subcutaneous Transplantation of HL60)
The human acute myeloid leukemia cell line HL60 (available from JCRB) was suspended in a mixture of RPMI-1640 medium and Matrigel (available from Corning Inc.), and then subcutaneously transplanted into 6-week-old female NOD/scid mice (available from CLEA Japan, Inc.). After confirming that the average tumor volume exceeded 200 mm^3, the test compound was dissolved in a solvent (1 equivalent sodium hydroxide solution) and orally administered to mice at a dose of 10 to 30 mg/kg once daily for 10 days. As a negative control, a solvent-administered group to which a 10 to 12 mmol/L sodium hydroxide solution was administered was provided. The tumor diameter was measured over time and the tumor volume was calculated. The tumor volume was calculated by measuring the major axis and the minor axis of the tumor and using the following expression. Tumor volume (mm^3)=[major axis (mm)×minor axis (mm)×minor axis (mm)]/2
T/C (%) was calculated from the average tumor volume of each group by the following expression, and the drug efficacy was evaluated. T/C (%)=(average tumor volume of drug-administered group)/(average tumor volume of solvent-administered group)×100%

| Structure (SMILES) | IC50 (recombinant human DHODH) [nM] | GI50 [1] [nM] | tumor growth inhibition rate (T/C) [2] |
| --- | --- | --- | --- |
| O=C(O)c1nc(C2CC2)cnc1Nc1cccc(C2=CCOCC2)c1OCC(F)(F)F [Example 2, 6-cyclopropyl-3-((3-(3,6-dihydro-2H-pyran-4-yl)-2-(2,2,2-trifluoroethoxy)phenyl)amino)pyrazine-2-carboxylic acid] | < 10 | < 100 | excellent tumor growth inhibition rate |
| O=C(O)c1nc(C2CC2)cnc1Nc1cccc(C2CCOCC2)c1OCC(F)(F)F [Example 4, 6-cyclopropyl-3-((3-(tetrahydro-2H-pyran-4-yl)-2-(2,2,2-trifluoroethoxy)phenyl)amino)pyrazine-2-carboxylic acid] | < 10 | < 100 | excellent tumor growth inhibition rate |
| C[C@H](Oc1c(Nc2ncc(C3CC3)nc2C(=O)O)cccc1C1=CCOCC1)C(F)(F)F [Example 8, (S)-6-cyclopropyl-3-((3-(3,6-dihydro-2H-pyran-4-yl)-2-((1,1,1-trifluoropropan-2-yl)oxy)phenyl)amino)pyrazine-2-carboxylic acid] | < 10 | < 100 | excellent tumor growth inhibition rate |
| C[C@H](Oc1c(Nc2ncc(C3CC3)nc2C(=O)O)cccc1C1CCOCC1)C(F)(F)F [Example 10, (S)-6-cyclopropyl-3-((3-(tetrahydro-2H-pyran-4-yl)-2-((1,1,1-trifluoropropan-2-yl)oxy)phenyl)amino)pyrazine-2-carboxylic acid] | < 10 | < 100 | excellent tumor growth inhibition rate |
| CCCc1c(Nc2ncc(C3CC3)nc2C(=O)O)cccc1C1CCOCC1 [Example 13, 6-cyclopropyl-3-((2-propyl-3-(tetrahydro-2H-pyran-4-yl)phenyl)amino)pyrazine-2-carboxylic acid] | 10 to 100 | < 100 | excellent tumor growth inhibition rate |
